Assay results reported in US8304382B2, “Anti-inflammatory and anti-allergic cyclic peptides” (Cristalia Productos Quimicos Farmaceuticos Ltda., priority 2006, dated 2012).

Tested on: leukocyte rolling in post-capillary venules of the cremaster muscle
Conditions: topical, LPS-induced rolling; FIG. 2 and 3

Question: How did the “inhibition of leukocyte rolling (in words)” value turn out when “Ile1-Pro2-Arg3-Cys4-Arg5-Lys6-Met7-Pro8-Gly9-Val10-Ala11-Met12-Cys13 [SEQ ID NO: 10]” was run?
Answer: not efficient
